# From patent publication US7074798B2, “Xanthine derivative and DPPIV inhibitor” (Eisai Co., Ltd, priority 2002, dated 2006)
# Structures can show the parent of a compound that is named as a salt.
# Key:
# [1] = target: T1, DPP-IV obtained from swine kidney (Sus scrofa, UniProt P22411); assay: Determination of the inhibition action of DPPIV; assay type: biochemical; details: Gly-Pro-p-nitroanilide 0.33 mM, absorbance 405 nm
# T1 construct: DPP-IV obtained from swine kidney; from tissue; host or cells: swine kidney
# Method: DPP-IV obtained from swine kidney was dissolved in reaction buffer (50 mM Tris-HCl pH 7.4, 0.1% BSA) at a concentration of 10 mU/mL, and 110 μl of the solution was added. Then, medicament (15 μl) was added thereto, and the mixture was incubated at room temperature for 20 minutes. Gly-Pro-p-nitroanilide (25 μl, final concentration: 0.33 mM) dissolved to 2 mM was added to the mixture to start enzymatic reaction. The reaction time was 20 minutes, and 1N phosphoric acid solution (25 μl) was added to the mixture to quench the reaction.
# [2] = system: male C57BL/6N mouse; assay: Effect on glucose tolerance of normal mouse (oral glucose loading); assay type: in vivo; details: 2 h, 30 min before glucose 2 g/kg, AUC0-120, 0.5% MC = 100%, NVP DPP728 10 mg/kg = 0%, lower = better, read-out: Improvement degree of glucose tolerance; for response vs control in vivo at 3 mg/kg: 3 mg/kg oral
# Method: Effect on Glucose Tolerance of Normal Mouse
# male C57BL/6N mouse (purchased from CHARLES RIVER JAPAN, INC.)
# A suspension of the test compound and NVP DPP728 or 0.5% MC solution (solvent control group) were orally administered at a dose of 10 mL/kg, and after 30 minutes, glucose solution was orally administered at a dose of 10 mL/kg. Glucose was orally administered at a dose of 2 g/kg.
# Immediately before the administration of the test substance and NVP DPP728, immediately before the administration of the glucose solution and at 30 minutes, 60 minutes, and 120 minutes after the administration, a tail vein of the mouse was injured to slightly bleed by a razor under no anesthesia. 10 μl of blood was collected and was immediately mixed with 0.6M perchloric acid (140 μl). Glucose in the supernatant obtained by centrifugation (1500 g, 10 minutes, 4° C., refrigerated centrifuge GS-6KR, Beckman Instruments, Inc.) was measured using Glucose CII-Test Wako (Wako Pure Chemical Industries, Ltd.).
# Area under the curve of blood glucose level-time (AUC0-120; Area Under the Curve) from the time of administration of glucose to 120 minutes after administration was calculated for respective administration groups, i.e., 0.5% MC solution, NVP DPP728, and the test compounds. Taking the AUC0-120 of the 0.5% MC solution administration group as 100% and the AUC0-120 of NVP DPP728 (10 mg/kg) administration group as 0%, the improvement degree of the glucose tolerance of a test compound was calculated using the following formula: Improvement degree of the glucose tolerance (%)=(AUC0-120 of the test compound−AUC0-120 of the NVP DPP728 (10 mg/kg) administration group)/(AUC0-120 of the 0.5% MC solution administration group−AUC0-120 of the NVP DPP728 (10 mg/kg) administration group)×100. • The lower the % value, the greater the improvement degree of the glucose tolerance will be.
# T1 sequence (P22411 whole entry): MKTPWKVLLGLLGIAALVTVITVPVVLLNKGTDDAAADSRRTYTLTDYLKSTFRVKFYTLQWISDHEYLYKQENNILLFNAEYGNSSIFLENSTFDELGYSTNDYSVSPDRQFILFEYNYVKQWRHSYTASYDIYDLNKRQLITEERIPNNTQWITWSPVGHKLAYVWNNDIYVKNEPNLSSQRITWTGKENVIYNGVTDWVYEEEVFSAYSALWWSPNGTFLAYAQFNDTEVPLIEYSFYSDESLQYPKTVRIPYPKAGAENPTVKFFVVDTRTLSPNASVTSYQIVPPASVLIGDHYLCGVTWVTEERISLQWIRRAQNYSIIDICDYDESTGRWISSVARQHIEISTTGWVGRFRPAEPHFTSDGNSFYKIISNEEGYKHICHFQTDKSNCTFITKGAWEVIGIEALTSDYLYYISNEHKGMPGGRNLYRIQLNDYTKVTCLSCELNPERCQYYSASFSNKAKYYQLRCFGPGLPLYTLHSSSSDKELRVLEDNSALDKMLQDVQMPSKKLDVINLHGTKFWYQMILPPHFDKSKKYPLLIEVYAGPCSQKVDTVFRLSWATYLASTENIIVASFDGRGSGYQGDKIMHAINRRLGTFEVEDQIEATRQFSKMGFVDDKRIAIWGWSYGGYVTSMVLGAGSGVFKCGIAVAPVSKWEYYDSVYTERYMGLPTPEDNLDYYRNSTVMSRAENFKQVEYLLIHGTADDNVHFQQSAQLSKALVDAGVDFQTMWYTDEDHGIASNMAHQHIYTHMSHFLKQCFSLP
IC50 [1] [nM],SMILES,response vs control in vivo at 3 mg/kg [2] [%],response vs control in vivo at 1 mg/kg ([2]; 1 mg/kg oral) [%]
24.1,"Cn1c(=O)n(CCc2ccccc2)c(=O)c2c1nc(N1CCCNCC1)n2Cc1ccccc1 [Control compound 1, reference compound]",49.2,
,"CC#CCn1c(N2CCNCC2)nc2c1c(=O)n(C)c(=O)n2C(C)C(=O)OCC (centres unmarked) [Example 257, 2-[7-(2-Butynyl)-1-methyl-2,6-dioxo-8-(piperazin-1-yl)-1,2,6,7-tetrahydropurin-3-yl]propionic acid ethyl ester trifluoroacetate]",10.5,
,"CC#CCn1c(N2CCNCC2)nc2c1c(=O)n(CCOCC)c(=O)n2C [Example 18, 7-(2-Butynyl)-1-(2-ethoxyethyl)-3-methyl-8-(piperazin-1-yl)-3,7-dihydropurine-2,6-dione trifluoroacetate]",9.5,
,"CC#CCn1c(N2CCNCC2)nc2c1c(=O)n(CC(=O)OC)c(=O)n2C [Example 15, [7-(2-Butynyl)-3-methyl-2,6-dioxo-8-(piperazin-1-yl)-2,3,6,7-tetrahydropurin-1-yl]acetic acid methyl ester trifluoroacetate]",-17.2,
,"CC#CCn1c(N2CCNCC2)nc2c1c(=O)[nH]c(=O)n2C [Example 14, 7-(2-Butynyl)-3-methyl-8-(piperazin-1-yl)-3,7-dihydropurine-2,6-dione]",,41.9
,"CC#CCn1c(N2CCNCC2)nc2c1c(=O)n(C)c(=O)n2CCC [Example 243, 7-(2-Butynyl)-3-propyl-1-methyl-8-(piperazin-1-yl)-3,7-dihydropurine-2,6-dione trifluoroacetate]",8.4,
,"CC#CCn1c(N2CCNCC2)nc2c1c(=O)n(C)c(=O)n2C(C(=O)OC)c1ccccc1 (centres unmarked) [Example 240, [7-(2-Butynyl)-1-methyl-2,6-dioxo-8-(piperazin-1-yl)-1,2,6,7-tetrahydropurin-3-yl]phenyl acetic acid methyl ester trifluoroacetate]",-2.8,
